Molecules are shown by their SMILES.

One data set has as its system rat cerebellum. Briefly: [^3H]RTX binding to rat cerebellum.
For data set [1], the system named is capsaicin receptor (porcine DRG subcellular fractions). Type of data set: binding, pig. The protocol:
Subcellular fractions are prepared by a modification of the method of Bastiaensen et al. (Bastiaensen, E., Miserez, B. and De Potter, W., Subcellular fractionation of bovine ganglion stellatum: co-storage of noradrenaline, Met-enkephalin and neuropeptide Y in large `dense-cored` vesicles, Brain Res., 442 (1988) 124-130. ) Briefly: DRG are dissected free from capsule, cut into small pieces with scissors, and then homogenized with a teflon pestle (20 strokes) in ice-cold 0.25 M sucrose/ 20 mM Tris-Cl (pH 7.4) buffer. The homogenate is filtered over surgical gauze; it is then centrifuged for 10 min at 2000 gmax, giving a pellet P1, and again at 10 000 gmax for 15 min giving a pellet P2. The P1 and P2 pellets are saved as nuclear and mitochondrial fractions for binding studies. […]
The binding assays are carried out in a volume of 250 ul, containing assay buffer (same as the disrupting buffer but omitting DTT and EGTA and including 0.75 mM CaCl2), 26-30 ug of membrane protein and 0.25 mg/ml bovine serum albumin. […] An aliquot of 50 ul of the mixture is removed to determine total radioactivity. The filters are washed with 100 ml of ice-cold 20 mM Tris-Cl, pH 7 4, containing 0.1 mg/ml bovine serum albumin, and the bound radioactivity is determined by scintillation counting. Non-specific binding is determined in the presence of 100-1000 nM non-radioactive RTX. […]

Data set [2] concerns the target T1, capsaicin receptor (dorsal horn from pig spinal cord) (Sus scrofa, UniProt F1RLJ0).
T1 construct: membrane preparations from dissected dorsal horn from pig spinal cord; from tissue; host or cells: dissected dorsal horn of pig spinal cord
Briefly: Binding to membrane preparations from dissected dorsal horn of pig spinal cord. The protocol: The binding assays are carried out in a volume of 250 ul, containing assay buffer (same as the disrupting buffer but omitting DTT and EGTA and including 0.75 mM CaCl2), 26-30 ug of membrane protein and 0.25 mg/ml bovine serum albumin. […] Tubes are kept on ice while the additions are made. The assay mixture is incubated for 10 min at 37° C.; it is then cooled on ice. 150 ul of the mixture is pipetted onto Whatman GF/C or GF/F glass fiber filters presoaked with 10 mg/ml bovine serum albumin in 20 mM Tris-Cl (pH 7.4) and filtered immediately. An aliquot of 50 ul of the mixture is removed to determine total radioactivity. The filters are washed with 100 ml of ice-cold 20 mM Tris-Cl, pH 7 4, containing 0.1 mg/ml bovine serum albumin, and the bound radioactivity is determined by scintillation counting. Non-specific binding is determined in the presence of 100-1000 nM non-radioactive RTX. Under these conditions approximately 30% of the non-specific binding is due to sticking of [^3 H]RTX to the filters. The remainder presumably reflects partitioning into the lipid phase of the membranes, as had been observed previously for typical phorbol esters (Driedger, P.E. and Blumberg, P.M., Specific binding of phorbol ester tumor promoters, Proc. Natl. Acad. Sci. U.S.A., 77 (1980) 567-571). […]
Alternatively, binding can be measured to membrane preparations from dissected dorsal horn from pig spinal cord. […]

For data set [3], the system named is rat brain preoptic region. Briefly: [^3H]RTX binding to rat brain preoptic region.

T1 sequence (F1RLJ0 1-841): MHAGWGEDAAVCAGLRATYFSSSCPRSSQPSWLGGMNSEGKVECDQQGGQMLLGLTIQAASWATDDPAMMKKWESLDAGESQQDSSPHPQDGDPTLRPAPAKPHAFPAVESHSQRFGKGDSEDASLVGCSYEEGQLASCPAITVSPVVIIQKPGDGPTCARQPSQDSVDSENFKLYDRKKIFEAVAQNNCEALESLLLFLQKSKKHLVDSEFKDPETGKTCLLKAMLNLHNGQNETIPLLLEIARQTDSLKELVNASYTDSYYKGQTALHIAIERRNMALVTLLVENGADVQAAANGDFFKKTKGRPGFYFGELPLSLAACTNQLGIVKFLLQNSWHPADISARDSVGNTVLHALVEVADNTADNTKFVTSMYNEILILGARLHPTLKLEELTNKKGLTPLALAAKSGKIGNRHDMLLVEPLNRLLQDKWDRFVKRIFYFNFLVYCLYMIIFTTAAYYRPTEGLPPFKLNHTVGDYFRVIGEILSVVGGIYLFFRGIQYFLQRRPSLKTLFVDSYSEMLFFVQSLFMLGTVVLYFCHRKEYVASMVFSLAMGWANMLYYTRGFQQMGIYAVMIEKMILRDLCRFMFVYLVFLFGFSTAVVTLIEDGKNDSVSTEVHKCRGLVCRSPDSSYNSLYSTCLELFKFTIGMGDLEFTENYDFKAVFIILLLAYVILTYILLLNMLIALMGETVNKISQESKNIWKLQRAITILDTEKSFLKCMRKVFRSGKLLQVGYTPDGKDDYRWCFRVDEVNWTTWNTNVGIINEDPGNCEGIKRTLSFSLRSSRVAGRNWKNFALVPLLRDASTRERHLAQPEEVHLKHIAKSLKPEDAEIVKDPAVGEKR

`C=C(C)[C@]12C[C@@H](C)[C@@]34O[C@](Cc5ccccc5)(O[C@@H]1[C@@H]3C=C(COC(=O)Cc1ccc(O)c(OC)c1)C[C@]1(O)C(=O)C(C)=C[C@@H]41)O2` [[^3 H]RTX, [^3 H]resiniferatoxin]: the “specific binding” value in the data set with rat cerebellum is given as “no specific binding”. Also, in data set [1] (fixed 300 pM [^3H]RTX, preliminary), the “specific [^3H]RTX binding, microsomal/plasma membrane fraction over mitochondrial fraction” value was 5 fold. In addition, the “specific [^3H]RTX binding in the nuclear pellet” value in data set [1] (nuclear pellet) was “No specific [^3 H]RTX binding”. In data set [2], the “% specific binding” value was 90% and binding was characterised by a dissociation constant (Kd) of 0.1 nM. The “detection of [^3H]RTX binding” value in data set [3] is recorded as “very difficult”.
